pKd: −log10 of the molar value. Square brackets hold non-standard residues; d marks the D form. Ends that are not written are not given here. pGlu = O=C1CC[C@@H](C(=O)O)N1
How the values were obtained:
[1] = tested on: human microvascular endothelial cells (HMEC-1); assay: endothelial cell migration into 1 cm wound in cell monolayer; type: cell-based
Protocol: FIG. 9 is a graph comparing the ability of kinestatin (▪) and fumagillin (▾) to inhibit the migration of human microvascular endothelial cells (HMEC-1) into a wound in a dose- and time-dependent manner
FIG. 10 is a time response curve showing the delay in complete closure of endothelial cell 1 cm wounds in the presence of kinestatin (▪) and non-treated control cells (▴).
Expt. […] Kinestatin prolonged wound closure time by 100% from 7 h (control) to 14 h (treatment) (FIG. 10).

[2] = tested on: endothelial tube structures on Matrigel matrix plates; assay: Matrigel tube formation assay; type: cell-based; settings: FIG. 8
Description: FIG. 8 is a graph comparing the ability of kinestatin (▪) and fumagillin (▴) to inhibit the formation of endothelial tube structures on Matrigel matrix plates.

[3] = tested on: human microvascular endothelial cell line (HMEC-1); assay: proliferation of endothelial cell line; type: cell-based; settings: FIG. 11
Description: FIG. 11 is a graph comparing the effect of control (▪), kinestsin (Q-9-R-(-7) (▴) and fumagillin (▾) on the proliferation of the human microvascular endothelial cell line (HMEC-1).

B1-receptor = biological target: T1, B1-receptor (Oryctolagus cuniculus, UniProt P48748); settings: cited from earlier work
T1 construct: in B1-receptor-rich preparations, such as the rabbit aorta; host or cells: rabbit aorta tissue preparation
T1 sequence (P48748 1-352): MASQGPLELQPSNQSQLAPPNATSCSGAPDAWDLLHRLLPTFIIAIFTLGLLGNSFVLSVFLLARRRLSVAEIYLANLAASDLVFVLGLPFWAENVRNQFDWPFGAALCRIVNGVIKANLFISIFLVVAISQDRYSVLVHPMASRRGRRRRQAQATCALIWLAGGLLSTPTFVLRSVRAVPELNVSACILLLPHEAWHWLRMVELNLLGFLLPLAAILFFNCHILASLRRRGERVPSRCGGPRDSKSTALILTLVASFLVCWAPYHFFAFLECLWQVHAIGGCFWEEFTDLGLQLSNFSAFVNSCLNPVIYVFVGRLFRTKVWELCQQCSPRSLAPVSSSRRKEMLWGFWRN

[4] = biological target: autologous receptor (of ornithokinin) cloned from chicken; settings: (Tyr^0)-radioiodinated ornithokinin as competing ligand; read-out: affinity; cited from earlier work
[5] = tested on: recombinantly-expressed receptor (of ornithokinin); settings: cited from earlier work
[6] = tested on: rat tail artery smooth muscle; assay: direct relaxation of phenylephrine pre-constricted rat tail artery preparation; settings: synthetic replicate, in the effective molar concentration range of bradykinin, FIG. 4A
Protocol: Male albino Wistar rats (200-250 g) were euthanised by asphyxiation followed by cervical dislocation. The tail artery was prepared as described previously (Chen T et al, Peptides. 2002; 23:1547-1555, Chen T et al, Eur. J. Biochem. 2002; 269:4693-4700, Hirst et al Br. J. Radiol. 1994; 67:795-799). After perfusion of arterial preparations with 1×10^−5M phenylephrine to obtain constriction plateaux, relative relaxation was recorded as described below following applications of reconstituted 100 μl aliquots of HPLC fraction samples (1-240) from B. maxima skin secretion. This was carried out to exclude those fractions (25) containing direct arterial smooth muscle relaxant activity. […] Changes in arterial smooth muscle tone were measured by a pressure transducer system and the percentage relative relaxations induced by bradykinin in the presence of reconstituted fractions were calculated using the MacLab computer package.
Arterial smooth muscle preparations were prepared as described previously and treated with phenylephrine (1×10^−5M) until constriction plateaux were achieved. […] 2) The effect of prior addition of a range of concentrations of kinestatin on the observed activity of subsequently added bradykinin at its maximally effective concentration (10^−6M) was determined. […] During a 20 min perfusion period, changes in arterial pressure were recorded as described previously. […]

bradykinin B2 receptors = biological target: T2, bradykinin B2 receptors (Rattus norvegicus, UniProt P25023); assay: inhibition of bradykinin-induced relaxation in phenylephrine pre-constricted rat tail artery preparation
T2 construct: phenylephrine pre-constricted rat tail artery preparation; from tissue; host or cells: rat tail artery (arterial smooth muscle preparation)
T2 sequence (P25023 1-396): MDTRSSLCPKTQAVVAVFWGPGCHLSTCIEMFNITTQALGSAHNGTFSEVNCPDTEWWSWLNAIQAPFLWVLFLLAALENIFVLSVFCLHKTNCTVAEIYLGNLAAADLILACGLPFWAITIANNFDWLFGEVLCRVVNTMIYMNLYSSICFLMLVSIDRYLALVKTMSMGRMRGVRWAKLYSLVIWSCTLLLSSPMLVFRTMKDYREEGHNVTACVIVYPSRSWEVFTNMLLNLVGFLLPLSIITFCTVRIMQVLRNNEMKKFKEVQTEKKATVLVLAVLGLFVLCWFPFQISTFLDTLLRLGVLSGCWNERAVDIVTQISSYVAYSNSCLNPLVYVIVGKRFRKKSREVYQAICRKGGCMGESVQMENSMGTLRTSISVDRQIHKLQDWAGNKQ
Protocol: Male albino Wistar rats (200-250 g) were euthanised by asphyxiation followed by cervical dislocation. The tail artery was prepared as described previously (Chen T et al, Peptides. 2002; 23:1547-1555, Chen T et al, Eur. J. Biochem. 2002; 269:4693-4700, Hirst et al Br. J. Radiol. 1994; 67:795-799). After perfusion of arterial preparations with 1×10^−5M phenylephrine to obtain constriction plateaux, relative relaxation was recorded as described below following applications of reconstituted 100 μl aliquots of HPLC fraction samples (1-240) from B. maxima skin secretion. […] The preparations were perfused as before with phenylephrine (1×10^−5M) until constriction plateaux were obtained. Following this, combinations of phenylephrine (1×10^−5M) and reconstituted non-myoactive fractions were perfused through individual preparations for 20 min. Immediately after this, the perfusate was replaced by a combination of phenylephrine (1×10^−5M), bradykinin (1×10^−6M) and reconstituted individual fractions. Changes in arterial smooth muscle tone were measured by a pressure transducer system and the percentage relative relaxations induced by bradykinin in the presence of reconstituted fractions were calculated using the MacLab computer package.
Arterial smooth muscle preparations were prepared as described previously and treated with phenylephrine (1×10^−5M) until constriction plateaux were achieved. Following this a series of experiments were performed to address the pharmacological characterization of the novel peptide, kinestatin. 1) Separate dose response curves were constructed for bradykinin and kinestatin using concentrations of both peptides in the range of 10^−11 to 10^−5M. […] The preparations were prepared as described before. […] Following this, phenylephrine (1×10^−5M) was added to the antagonist solution and perfused for 10 min to develop contraction of the arterial smooth muscle. On obtaining stable plateaux of constriction, the perfusate was replaced by another containing phenylephrine, antagonist and bradykinin (1×10^−6M). During a 20 min perfusion period, changes in arterial pressure were recorded as described previously. In a second similar series of experiments, kinestatin (1×10^−8M) was added to each of the specific bradykinin receptor sub-type antagonist solutions prior to the procedure described above. Data were analysed by computer using Students t test available on the Graph Pad Prism™ programme.

## CO[C@@H]1[C@H](OC(=O)/C=C/C=C/C=C/C=C/C(=O)O)CC[C@]2(CO2)[C@H]1[C@@]1(C)O[C@@H]1CC=C(C)C [fumagillin, reference compound]
[1]; FIG. 9
  maximal inhibitory effect on migration: same maximal inhibitory effect
[2]
  effect on tube formation: inhibitory effect
[3]
  cell proliferation: profound effects on inhibition of cell proliferation

## RPPGFSPLR [Leu^8-bradykinin, bradykinin analogue, found in pickerel frog skin]
B1-receptor; B1-receptor-rich preparations, rabbit aorta
  antagonism of bradykinin and des-Arg^9 bradykinin: potent antagonist
B1-receptor; previous pharmacological studies
  bradykinin agonist activity: devoid of bradykinin agonist activity

## RPPGFTPLR [ornithokinin]
[4]
  pKd: 8.33

## Arg-Arg-Pro-Hyp-Gly-Thi-Ser-Tic-Oic-Arg [HOE-140]
[5]
  function at receptor: partial agonist

## pGlu-Ile-Pro-Gly-Leu-Gly-Pro-Leu-Arg.NH2 ([pGlu]IPGLGPLR-NH2; SMILES CC[C@H](C)[C@H](NC(=O)[C@@H]1CCC(=O)N1)C(=O)N1CCC[C@H]1C(=O)NCC(=O)N[C@@H](CC(C)C)C(=O)NCC(=O)N1CCC[C@H]1C(=O)N[C@@H](CC(C)C)C(=O)N[C@@H](CCCNC(=N)N)C(N)=O; listed as Bombina maxima) [kinestatin, bradykinin B2 receptor antagonist nonapeptide from skin secretion of Bombina maxima; synthetic replicate tested]
[1]; FIG. 9
  maximal inhibitory effect on migration: same maximal inhibitory effect
  potency relative to fumagillin: more potent on a molar basis
[1]; time to half closure of 1 cm wide wound
  endothelial cell migration: inhibition in endothelial cell migration
[1]; treatment, FIG. 10
  wound closure time: 14 h
[1]; versus control, FIG. 10
  prolongation of wound closure time: 100%
[6]
  myorelaxant activity: devoid of myorelaxant activity
[2]
  effect on tube formation: inhibitory effect
Bradykinin B2 receptors
  potency as bradykinin antagonist relative to Leu^8 bradykinin: ~10 ×
Bradykinin B2 receptors; kinestatin 1×10^−8M added, HOE 140 3×10^−7M, p=0.0015, n=6
  inhibition of bradykinin-induced relaxation in HOE 140-treated preparations: significant inhibition
Bradykinin B2 receptors; kinestatin 1×10^−8M added, des Arg HOE 140 3×10^−7M, p=0.033, n=6
  inhibition of bradykinin-induced relaxation in des Arg HOE 140-treated preparations: significant inhibition
Bradykinin B2 receptors; kinestatin at 1×10^−8M, FIG. 4C
  effect on bradykinin-induced relaxation dose response curve: Virtual total abolition
Bradykinin B2 receptors; prior addition, bradykinin dose response
  maximally inhibitory concentration: 10^−8 M
Bradykinin B2 receptors; rat tail arterial smooth muscle
  receptor mediating the inhibition: antagonism at B2 receptors
Bradykinin B2 receptors; ten nanomolar kinestatin, one micromolar bradykinin
  block of maximal bradykinin relaxing activity: almost totally blocked
Bradykinin B2 receptors; within this concentration range
  mechanism of inhibition: non-competitive mechanism
[3]
  cell proliferation: profound effects on inhibition of cell proliferation
